For data set [1], the system named is Human Hematopoietic Stem Cells. Put plainly: Differentiation of human hematopoietic stem cells: loss of stemness marker CD-34+ (immunostaining). In kind it is cell-based. The conditions noted are these: compound in cell media solution, 400 ng/mL, 48 hours.
Data set [2] is described as follows: Stability of non-covalent coating of fluorescent peptides on apatite ceramics or type-I collagen sponge. The class given is physicochemical. The conditions noted are these: FITC-bound peptide on apatite ceramics or type-I collagen sponge; after 3, 7 or 10 days. Here is the method:
Non-covalent modifications of the materials were performed in Air Atmosphere at room temperature. The non-covalent coating strategy consisted in using a mixture of compound of the invention (SEQ ID NO: 9; concentration of 1×10^−3M) with an apatite ceramics implant or a mixture of compound of the invention (SEQ ID NO: 10; concentration of 1×10^−3M) with a type-I collagen sponge. The non-covalently coated conventional materials were characterized by using fluorescent peptides (Here SEQ ID NO: 9 and 10 covalently bound to fluorescein isothiocyanate (FITC), FIG. 3). The results shown here in FIG. 3 were obtained from experiments performed with apatite ceramics and a type-I collagen sponge. […] Indeed, after 3, 7 or 10 days, the osteogenic peptides were still coupled to the ceramics or the type-I collagen (FIG. 4). The biomaterial surface was characterized by X-ray photoelectron spectroscopy (Table 1). The X-ray photoelectron spectroscopy was performed as described in the Methods section.

The test system of data set [3] is hMSCs. Put plainly: ALP activity of hMSCs on type-I collagen sponge coupled with compound. The class given is cell-based, Human. The conditions noted are these: after 1 week of culture on type-I collagen sponge. The source says:
Finally, it was verified that the hMSCs were differentiated into mature osteoblasts by analyzing the activity of the osteogenic biomarker ALP (Alkaline Phosphatase Activity). We observed an increase in the ALP activity after 1 week of culture on type-I collagen sponge coupled with GFR-binding compounds as defined herein (SEQ ID NO: 19) (FIG. 8b).

The next data set concerns osteoblast progenitors. Put plainly: Osteogenic differentiation of osteoblast progenitors on coated materials (Osteopontin staining, Runx2 Q-PCR). In kind it is cell-based. To be noted: 48 hours on coated apatite ceramics or type-I collagen sponge vs native materials. The procedure:
The cells were first fixed for 20 min with 4% paraformaldehyde/PBS at 4° C. After fixation, the cells were permeabilized in PBS containing 1% Triton X-100 for 15 min. Runx2, Osterix, Stro-1, Vinculin, Phalloidin, Osteopontin, Sox2, Sox9 antibodies were visualized by treating the cells with 1% (v/v) specific monoclonal antibodies for 1 hour at 37° C. Then the samples were incubated with Alexa Fluor® 568 or 647 (F(ab′)2 fragment of IgG(H+L)) during 30 min at room temperature. The cell nuclei were counterstained in 20 ng/mL DAPI for 10 min at room temperature.
Total RNA was extracted by using the RNeasy total RNA kit (Qiagen®) according to the manufacturer's instructions. Purified total RNA was used as a template in order to make cDNA by a reverse transcription reaction (Gibco Brl®) with random primers (Invitrogen®). […] Data were analyzed with the iCycler IQ™® software and compared by the ΔΔCt method. […]
The effect of the GFR-binding compounds as defined herein (SEQ ID NO: 19 and 20) on the differentiation of osteoblast progenitors was evaluated. […]
Finally, it was verified that the osteoblast progenitors were differentiated into mature osteoblasts by analyzing the expression of the osteogenic biomarker Runx2. An increase in the Runx2 gene expression after 24 hours of culture (FIG. 8a) was observed by using Quantitative Real Time Polymerase Chain Reaction as described in the Methods section.

The subject of data set [4] is hMSCs. Description: Cartilage regeneration: chondrocyte differentiation of hMSCs (Sox9, Aggrecan). The class given is cell-based, Human. The conditions noted are these: after 96 hours of culture. Here is the method:
Total RNA was extracted by using the RNeasy total RNA kit (Qiagen®) according to the manufacturer's instructions. Purified total RNA was used as a template in order to make cDNA by a reverse transcription reaction (Gibco Brl®) with random primers (Invitrogen®). The cDNA was then used as a template for a real-time PCR amplification in the presence of SYBR green reagents (Bio-Rad®) by using a thermocycler (iCycler, Biorad®). Data were analyzed with the iCycler IQ™® software and compared by the ΔΔCt method. […]
Total RNA was extracted by using the RNeasy Mini Kit (Qiagen) and […] RNA was used for cDNA synthesis with AMV kit (Invitrogen®) according to the manufacturer′ instructions. Semi-quantitative reverse transcriptase-polymerase chain reaction (RT-PCR) was performed with Taq DNA Polymerase (Invitrogen®) in a thermocycler (Bio-Rad®). […] The PCR products were analyzed on 2% agarose gels. For the Aggrecan gene, the PCR bands were densitometrically quantified by using the BioCapt software (Vilber). […]
It was then verified that these hMSCs cultured with and without GFR-binding compounds as defined herein were differentiated into chondrocyte cells by analyzing the expression of the chondrocyte gene biomarker: Aggrecan. […] For that a semi-quantitative RT-PCR was performed as described in the Methods section for the Aggrecan gene and a Quantitative Real Time PCR for Sox9.

The test system of a further data set is Hair Follicle Stem Cells. Description: Activation of hair follicle stem cells (Sox2 expression, BMP-6 release). In kind it is cell-based, Mouse. The source says: The following starting materials and reagents were used: • Apatite ceramics (also called apatite or ceramic in the present invention) were synthetized as described in Mater Res. 2004; 7(4): 625-630. • Titanium was obtained from Goodfellow®. • Hydrogel (poly(acrylamide-co-acrylic acid) gel) was synthetized as described in Langmuir 2011; 27(22):13635-42. • PEEK was obtained from Goodfellow®. • PET (Poly(ethylene terephthtalate) was obtained from Goodfellow@. • Type-I collagen sponge was obtained from Sigma®. • Hexane was obtained from Sigma®. • 3-succinimidyl-3-maleimidopropionate (SMP) was obtained from Sigma®. • DMF was obtained from Sigma®. • PBS 1× was obtained from Gibco®. • 3-(ethoxydimethylsilyl)propylamine was obtained from Sigma®. • Ammonium persulfate was obtained from Biorad®. • N,N,N′,N′-tetramethylethylenediamine was obtained from Aldrich®. • Acrylamid was obtained from Merck®. • Acrylic acid was obtained from Merck®. • N,N-methylene-bis-acrylamide was obtained from Merck®. • NaOH was obtained from Aldrich®. • N,N,N′,N′-tetramethylethylenediamine was obtained from Aldrich®. • Dimethylaminopropyl-3-ethylcarbodiimide hydrochloride was obtained from Aldrich®. • N-hydroxysuccinimide was obtained from Aldrich®. • 2-(N-morpholino)-ethane sulfonic acid was obtained from Aldrich®. • MilliQ water: is water characterised in terms of resistivity (typically 18.2 MΩ·cm at 25° C.). • Low glucose Dulbecco's Modified Eagle Medium (DMEM) was obtained from Invitrogen® • Minimum Essential Medium Eagle without ascorbic acid (αMEM) was obtained from Invitrogen®. • All of the cell culture experiments were carried out without any serum in the medium for the first 8 hours of culture. • Osteoblast progenitors or precursor osteoblasts: MC3T3-E1 cells were obtained from ATCC®. These cells were cultured in Alpha-MEM medium supplemented with 10% fetal calf serum (FCS) and 1% penicillin/streptomycin. All cells were used at a low passage number (passage 7), were subconfluently cultured and were seeded at 10^4 cells/cm^2 for the purpose of the experiments. • Human bone marrow Mesenchymal Stem Cells (hMSCs) were obtained from Lonza®. These cells were cultured in Alpha-MEM supplemented with 10% (v/v) FBS and 1% penicillin/streptomycin and incubated in a humidified atmosphere containing 5% (v/v) CO2 at 37° C. All cells were used at a low passage number (passage 2 to 4), were subconfluently cultured and were seeded at 10^4 cells/cm^2 for the purpose of the experiments. • Human adipose Mesenchymal Stem Cells (haMSCs) were obtained from Lonza®. These cells were cultured in Alpha-MEM supplemented with 10% (v/v) FBS and 1% penicillin/streptomycin and incubated in a humidified atmosphere containing 5% (v/v) CO2 at 37° C. […]

A further data set concerns Neurons. Put plainly: Neuron growth (dendrite growth, GAP43 Q-PCR). The class given is cell-based.
Excerpt: […]

No end group written: not given here.

With “PTSSAPTDLRSVKMAKVEIVRKKPIFKEVQVDMVVKASGDKGVVTY (also: cyclic, ring type not given here) [SEQ ID NO: 742]”, in data set [1], the “CD34+ Expression (%)” value is given as 33%. For the substance “SEQ ID NO: 9: compound of the invention non-covalently coated on apatite ceramics; tested bound to FITC; sequence not in this part (WWFWGSAISTLYLIGKTPKILKNYQ; also: FITC label, site not given here, cyclic, ring not given here)”, the “release of peptides from the coated material over time” value in data set [2] is listed as “no significant release”.

In the case of “SEQ ID NO: 10: compound of the invention non-covalently coated on type-I collagen sponge; tested bound to FITC; sequence not in this part (GTPGPSAISTLYLIGKTPKILKNYQ; also: cyclic, ring type not given here, bound to FITC, place not given here)”, in data set [2], the “release of peptides from the coated material over time” value is listed as “no significant release”. As for “SEQ ID NO: 19: GFR-binding compound, osteogenic, coated on apatite ceramics or collagen sponge; sequence not in this part (WWFWGSAISTLYLDEYDKVVLKNYQ; also: cyclic, ring type not given here)”, the ALP activity result in the data set with hMSCs [3] is “increase”. Besides, in the data set with osteoblast progenitors, the “production of extracellular matrix proteins such as Osteopontin (OPN)” value is recorded as “extensive amounts”.

With “SEQ ID NO: 20: GFR-binding compound, osteogenic, coated on apatite ceramics or collagen sponge; sequence not in this part (GTPGPSAISTLYLGGGGLKNYQ; also: cyclic, ring type not given here)”, the “production of extracellular matrix proteins such as Osteopontin (OPN)” value with osteoblast progenitors is “extensive amounts”. Turning to “SEQ ID NO: 23: GFR-binding compound inducing cartilage regeneration; sequence not in this part (ELEPLPIVYYVGRKPKVEQLSNGG; also: cyclic, ring type not given here)”, the “expression of the Sox9 protein” value with hMSCs [4] is on record as “expression of the Sox9 protein was observed”. In the case of “SEQ ID NO: 24: GFR-binding compound inducing cartilage regeneration; sequence not in this part (EPLPIVYYVGRTPKVEQLSNGG; also: cyclic, ring type not given here)”, the “expression of the Sox9 protein” value in the data set with hMSCs [4] is “expression of the Sox9 protein was observed”. For “SEQ ID NO: 29: GFR-binding compound tested on hair follicle stem cells; sequence not in this part (DENKNSSLSILFFDENKNVVLKVYP; also: cyclic, ring type not given here)”, in the data set on Hair Follicle Stem Cells, the “BMP-6 release in the cell culture medium” value is given as “decrease” and the Sox2 protein expression entry is listed as “increase”. Take “SEQ ID NO: 30: GFR-binding compound tested on hair follicle stem cells; sequence not in this part (DENEKSSLSILFFDENEKVVLKVYP; also: cyclic, ring type not given here)”: in the data set with Hair Follicle Stem Cells, the “BMP-6 release in the cell culture medium” value was “decrease” and the Sox2 protein expression entry is listed as “increase”. On to “SEQ ID NO: 38: neurogenic peptide; sequence not in this part (SPISILYIDAANNVVYKQYEDAAN; also: cyclic, ring type not given here)”, for which the “establishment of cell-cell contacts via dendrite growth” value with Neurons (after 6 hours of culture) is given as “rapid establishment of cell-cell contacts”. The GAP43 gene expression entry in the data set on Neurons (after 48 hours of culture, Q-PCR) is reported as “high level of expression”.

In the case of “VPTAAEPLTMLYYEIVRKKPIFEQLSNMVEHSDDMGVPT (also: cyclic, ring not given here) [SEQ ID NO: 744]”, the “CD34+ Expression (%)” value in data set [1] worked out at 38%.

With “VSQAARPVQTRKIDDMGVPTKKATVAAVKSDDMGVPT (also: cyclic, ring not given here) [SEQ ID NO: 741]”, the “CD34+ Expression (%)” value in data set [1] turned out to be 26%.

These data come from patent publication US20180305408A1, “COMPOUNDS FOR INDUCING TISSUE FORMATION AND USES THEREOF” (HISTIDE AG, priority 2015, published 2018).
